Results from paper PMC10213937 (Frontiers in Pharmacology, 2023).
Like-named read-outs stand apart in the source and are kept apart here.

What was measured:
ABCC2 = ABCC2 (Homo sapiens, UniProt Q92887); assay: ATO uptake/transport in cell transport models, ABCC2; assay type: cell-based; settings: ATO as substrate, MK571 20 μM
[1] = Stability in rat blood plasma (HPLC-MS/MS validation); settings: n = 5
[2] = Plasma concentrations of ATO, metabolites and VOR in patients (HPLC-MS/MS); assay type: in vivo, human; parameters: Concentration in human blood samples: unit not given here; settings: for Concentration in human blood samples: n = 3; for Decrease of metabolite concentration in the VOR group: VOR + ATO vs ATO alone
Excerpt: The experimental procedures were approved by the Ethics Committee of Shenzhen Hospital of Southern Medical University, and conducted in accordance with the Declaration of Helsinki (No. NYSZYYEC20180017). Subjects were selected from patients seen in the Department of Critical Care Medicine of Shenzhen Hospital of Southern Medical University, who were diagnosed with fungal infections complicated by cardiovascular and cerebrovascular diseases. Written informed consent was obtained from three patients aged 20-55 years. […] All procedures followed the ethical principles of the World Medical Association (WMA) Declaration of Helsinki and were approved by the Medical Ethics Committee of Shenzhen Hospital. […] Prelude […] The injection volume is 2 μL.

[3] = Pharmacokinetic interaction study in rats, Study II: VOR with or without ATO; assay type: in vivo; settings: male, Sprague-Dawley, rat, plasma, po, 20 mg/kg; for AUC(0-t): read-out: AUC0–24h
Experimental: Considering the clinical dosage of each drug and the dose equivalence between rats and human subjects, the corresponding quantity of drug powder was taken and resuspended with normal saline to prepare the drug-containing administration solution before treatment.
Treatment of the blood plasma: 40 µL of blood plasma was mixed with 10 µL of internal standard working solution (500 ng/ml) and acidified with 100 µL CH3COONa (0.1 mol/L). After the methyl tert-butyl (1 ml) was added, the mixture was vortexed for 5 min and centrifuged at 3000 r/min for 10 min at 4°C. The supernatant was removed into another 10 ml conical glass tube and dried in a rotary evaporator at 45°C. The residue was redissolved in 100 µL methanol and vortexed for 1 min, followed by HPLC-MS/MS analysis.
A Thermo Scientific™ TSQ Quantiva™ triple-stage quadrupole mass spectrometer (Thermo Fisher Scientific, MA, USA) equipped with a Thermo Scientific™ OptaMax™ NG ion source was used for the experiments. Prelude SPLC™ System samples, pretreatment technology (TurboFlow Eddy current purification), and a Thermo Scientific liquid chromatography system were also connected to the mass spectrometer. The HPLC conditions were as follows: column, Thermo Hypersil Gold C18 column (2.1 × 100 mm, 1.9 μm), column temperature maintained at 40 °C; TurboFlow column, Thermo Cyclone TM-P (0.5 × 50 mm) (ThermoFisher Scientific, MA, USA). The injection volume is 2 μL.
The analytes were quantified by selective reaction monitoring (SRM) that used heating electrospray ionization (H-ESI) in the positive ion mode. The main working parameters of the mass spectrometry were regulated as follows: ion spray voltage, 3 kV; capillary temperature, 350°C; sheath gas (N2) flow, 45 Arb; auxiliary gas (N2) flow, 10 Arb; and collision gas (Ar) flow, 2 mTorr. […] Thermo Scientific™ Pinpoint™ software version 1.3 (ThermoFisher Scientific, MA, USA) was used for data acquisition.
The blood samples (0.2 ml aliquots) were collected after taking a single dose of the test drug, which was the same as described in Study I. The blood samples were preserved on ice for further processing; after centrifuging at 4000 rpm for 5 min, the plasma samples were obtained and stored at −80°C until further analysis was performed. […] Non-compartmental pharmacokinetic analysis of plasma data was conducted using DAS (2.0 version, BioGuider Co., Shanghai, China) to calculate the parameters in the pharmacokinetic study.

[4] = rat
CYP3A [5] = assay: Inhibition by VOR of ATO metabolism in rat liver microsomes; assay type: in vitro ADME; settings: pH 7.4, probe atorvastatin (ATO), 2 μM
Experimental: The incubations were performed in duplicate.

CYP3A [6] = assay: in vitro; settings: rat, microsomes
[7] = 24 h at 25℃, nominal 0.05 ng/mL
[8] = three freeze-thaw cycle (−80℃/25℃), nominal 0.05 ng/mL
[9] = three freeze-thaw cycle (−80℃/25℃), nominal 5 ng/mL
[10] = three freeze-thaw cycle (−80℃/25℃), nominal 80 ng/mL
[11] = ATO 20 mg alone, 0 h after taking ATO
[12] = ATO 20 mg alone, 1 h after taking ATO
[13] = ATO 20 mg alone, 2 h after taking ATO
[14] = ATO 20 mg alone, 12 h after taking ATO
[15] = ATO 20 mg alone, 24 h after taking ATO
[16] = VOR + ATO (VOR iv 6 mg/kg day 1, 4 mg/kg days 2–3), 0 h after taking ATO
[17] = first of four printed values (1 h by Table 1)
[18] = fourth of four printed values (24 h by Table 1)
[19] = second of four printed values (2 h by Table 1)
[20] = third of four printed values (12 h by Table 1)
[21] = VOR + ATO, 1 h after taking ATO
[22] = VOR + ATO, 2 h after taking ATO
[23] = VOR + ATO, 12 h after taking ATO
[24] = VOR + ATO, 24 h after taking ATO
[25] = ATO 2 mg/kg + VOR 20 mg/kg oral

Chain of ABCC2 (Q92887 whole entry): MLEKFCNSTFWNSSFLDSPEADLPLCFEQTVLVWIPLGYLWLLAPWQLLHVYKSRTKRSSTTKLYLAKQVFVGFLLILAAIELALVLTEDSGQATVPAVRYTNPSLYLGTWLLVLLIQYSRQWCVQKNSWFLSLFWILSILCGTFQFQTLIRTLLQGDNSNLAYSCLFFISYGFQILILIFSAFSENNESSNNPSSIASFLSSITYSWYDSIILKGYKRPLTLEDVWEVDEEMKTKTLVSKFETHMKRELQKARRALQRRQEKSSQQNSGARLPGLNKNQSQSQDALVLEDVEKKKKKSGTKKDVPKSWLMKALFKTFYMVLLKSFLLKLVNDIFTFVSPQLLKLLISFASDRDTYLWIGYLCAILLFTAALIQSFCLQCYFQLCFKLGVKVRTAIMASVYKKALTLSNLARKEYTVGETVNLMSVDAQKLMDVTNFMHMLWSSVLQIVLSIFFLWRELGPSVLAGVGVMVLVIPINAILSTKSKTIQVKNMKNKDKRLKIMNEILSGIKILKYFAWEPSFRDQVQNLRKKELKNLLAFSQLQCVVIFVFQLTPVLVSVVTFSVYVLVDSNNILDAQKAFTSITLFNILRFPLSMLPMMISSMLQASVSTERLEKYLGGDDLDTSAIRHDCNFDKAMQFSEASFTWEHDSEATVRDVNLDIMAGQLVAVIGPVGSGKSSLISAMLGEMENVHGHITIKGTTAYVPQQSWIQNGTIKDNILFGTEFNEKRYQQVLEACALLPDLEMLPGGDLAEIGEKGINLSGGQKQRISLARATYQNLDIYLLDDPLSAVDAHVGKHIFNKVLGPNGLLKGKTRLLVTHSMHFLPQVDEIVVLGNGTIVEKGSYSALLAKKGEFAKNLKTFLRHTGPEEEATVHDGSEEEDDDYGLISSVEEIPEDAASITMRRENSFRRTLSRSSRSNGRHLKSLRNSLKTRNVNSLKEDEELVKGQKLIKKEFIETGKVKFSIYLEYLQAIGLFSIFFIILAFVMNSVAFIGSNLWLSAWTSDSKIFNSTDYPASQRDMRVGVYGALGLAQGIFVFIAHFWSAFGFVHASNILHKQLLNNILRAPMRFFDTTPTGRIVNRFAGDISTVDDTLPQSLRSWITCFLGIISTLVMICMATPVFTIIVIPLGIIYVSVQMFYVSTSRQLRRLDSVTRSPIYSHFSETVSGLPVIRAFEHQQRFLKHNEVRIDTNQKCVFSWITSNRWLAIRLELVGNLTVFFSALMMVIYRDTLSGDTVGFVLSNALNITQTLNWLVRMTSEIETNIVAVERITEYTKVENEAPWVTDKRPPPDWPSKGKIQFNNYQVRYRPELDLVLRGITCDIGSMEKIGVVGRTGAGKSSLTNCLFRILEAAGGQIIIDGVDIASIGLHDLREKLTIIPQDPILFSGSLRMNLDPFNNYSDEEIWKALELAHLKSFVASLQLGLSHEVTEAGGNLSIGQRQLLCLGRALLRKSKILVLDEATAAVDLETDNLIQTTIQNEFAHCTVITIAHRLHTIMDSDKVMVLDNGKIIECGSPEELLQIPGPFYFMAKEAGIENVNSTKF

| SMILES | Effect on the activity (efflux) of ABCC2 (ABCC2) | Stability, %RE [1, 7] [%] | Stability, measured concentration (mean ± SD) [1, 7] [ng/mL] | Stability, %RE ([1]; 24 h at 25℃, nominal 5 ng/mL) [%] | Stability, measured concentration (mean ± SD) ([1]; 24 h at 25℃, nominal 5 ng/mL) [ng/mL] | Stability, %RE ([1]; 24 h at 25℃, nominal 80 ng/mL) [%] | Stability, measured concentration (mean ± SD) ([1]; 24 h at 25℃, nominal 80 ng/mL) [ng/mL] | Stability, %RE [1, 8] [%] | Stability, measured concentration (mean ± SD) [1, 8] [ng/mL] | Stability, %RE [1, 9] [%] | Concentration in human blood samples [2, 11] | Concentration in human blood samples [2, 12] | Concentration in human blood samples [2, 13] | Concentration in human blood samples [2, 14] | Concentration in human blood samples [2, 15] | Concentration in human blood samples [2, 16] | Concentration in human blood samples [2, 21] | Concentration in human blood samples [2, 22] | Concentration in human blood samples [2, 23] | Concentration in human blood samples [2, 24] | also measured |
| --- | --- | --- | --- | --- | --- | --- | --- | --- | --- | --- | --- | --- | --- | --- | --- | --- | --- | --- | --- | --- | --- |
| CN(C)C(=O)CCSC(SCCC(=O)O)c1cccc(/C=C/c2ccc3ccc(Cl)cc3n2)c1 (centres unmarked) [MK571] | reversed the efflux | – | – | – | – | – | – | – | – | – | – | – | – | – | – | – | – | – | – | – | – |
| CC(C)c1c(C(=O)Nc2ccccc2O)c(-c2ccccc2)c(-c2ccc(F)cc2)n1CCC(O)CC(O)CC(=O)O (centres unmarked) [2-Hydroxy-ATO, 2-hydroxy-ATO] | – | -0.35 | 0.047 ± 0.005 | -8.25 | 4.538 ± 0.424 | -6.25 | 76.114 ± 5.314 | -8.35 | 0.044 ± 0.004 | -1.35 | 3.401 ± 1.028 | 21.602 ± 1.929 | 15.196 ± 1.779 | 10.106 ± 2.969 | 3.950 ± 1.867 | 4.239 + 2.160 | 5.543 + 2.235 | 10.100 + 1.896 | 4.475 + 2.687 | 2.200 + 1.184 | Stability, measured concentration (mean ± SD) [1, 9]: 4.554 ± 0.568 ng/mL; Stability, %RE [1, 10]: -10.28%; Stability, measured concentration (mean ± SD) [1, 10]: 72.580 ± 4.221 ng/mL; Decrease of metabolite concentration in the VOR group [2, 17]: 74.34%; Decrease of metabolite concentration in the VOR group [2, 18]: 44.30%; Decrease of metabolite concentration in the VOR group [2, 19]: 33.53%; Decrease of metabolite concentration in the VOR group [2, 20]: 55.72% |
| C[C@@H](c1ncncc1F)[C@](O)(Cn1cncn1)c1ccc(F)cc1F [VOR, Voriconazole] | no effect | – | – | – | – | – | – | – | – | – | 0.007 + 0.012 | 0.000 + 0.000 | 0.007 + 0.012 | 0.000 + 0.000 | 0.007 + 0.012 | 2.870 + 0.325 | 2.673 + 0.465 | 2.563 + 0.122 | 2.780 + 0.317 | 2.820 + 0.540 | AUC(0-inf) [3, 25]: 3280 ± 835 ng·h/mL; Cmax [3, 25]: 826 ± 166 ng/mL; Tmax [3, 25]: 0.917 ± 0.204 h; half-life [3, 25]: 2.6 ± 0.419 h; AUC(0-t) [3, 25]: 3250 ± 862 ng·h/mL; AUC(0-inf) ([3]; NS + VOR 20 mg/kg oral): 3640 ± 798 ng·h/mL; Cmax ([3]; NS + VOR 20 mg/kg oral): 829 ± 246 ng/mL; Tmax ([3]; NS + VOR 20 mg/kg oral): 1.25 ± 0.612 h; half-life ([3]; NS + VOR 20 mg/kg oral): 2.58 ± 0.317 h; AUC(0-t) ([3]; NS + VOR 20 mg/kg oral): 3630 ± 802 ng·h/mL; MRT inf ([3]; NS + VOR 20 mg/kg oral, read-out: MRT0-∞): 3.53 ± 0.66 h; Stability, measured concentration (mean ± SD) ([4]; 0.05 ng/mL): 0.045 ± 0.004 ng/mL; Stability, measured concentration (mean ± SD) ([4]; 5 ng/mL): 4.558 ± 0.318 ng/mL; Stability, measured concentration (mean ± SD) ([4]; 80 ng/mL): 75.238 ± 5.338 ng/mL; Stability, measured concentration (mean ± SD) ([4]; 24 h, 0.05 ng/mL): 0.048 ± 0.004 ng/mL; Stability, measured concentration (mean ± SD) ([4]; 24 h, 5 ng/mL): 4.962 ± 0.301 ng/mL; Stability, measured concentration (mean ± SD) ([4]; 24 h, 80 ng/mL): 79.264 ± 5.131 ng/mL; IC50 at 20 min (CYP3A [5]): 45.9 µM; IC50 (CYP3A [6]): 49.8 µM |
| CC(C)c1c(C(=O)Nc2ccc(O)cc2)c(-c2ccccc2)c(-c2ccc(F)cc2)n1CC[C@@H](O)C[C@@H](O)CC(=O)O [4-Hydroxy-ATO, 4-hydroxy-ATO] | – | -7.78 | 0.045 ± 0.007 | -2.31 | 4.625 ± 0.337 | -9.07 | 73.581 ± 6.587 | -9.87 | 0.044 ± 0.005 | -1.25 | 4.073 ± 2.168 | 15.510 ± 1.283 | 14.783 ± 3.501 | 6.863 ± 1.586 | 6.103 ± 2.640 | 5.047 + 0.882 | 8.150 + 1.219 | 6.537 + 0.304 | 3.717 + 0.807 | 3.563 + 1.830 | Stability, measured concentration (mean ± SD) [1, 9]: 4.501 ± 0.411 ng/mL; Stability, %RE [1, 10]: -9.69%; Stability, measured concentration (mean ± SD) [1, 10]: 72.334 ± 7.338 ng/mL; Decrease of metabolite concentration in the VOR group [2, 17]: 47.45%; Decrease of metabolite concentration in the VOR group [2, 18]: 41.62%; Decrease of metabolite concentration in the VOR group [2, 19]: 55.78%; Decrease of metabolite concentration in the VOR group [2, 20]: 45.85% |
